Patent US20060073172A1, “Stabilized ophthalmic solution for the treatment of glaucoma and lowering intraocular pressure” (priority 2004, published 2006)

Columns and labels:
5-HT2 receptors = settings: cited from earlier work; for 5-HT2 receptor subtype selectivity: 5-HT2A, 5-HT2B, 5-HT2C
[1] = Stabilization of 1-(2-aminopropyl)-indazol-6-ol by classical antioxidants; type: physicochemical; settings: aqueous solution

| SMILES | 5-HT2 receptor subtype selectivity (5-HT2 receptors) | Stabilization by classical antioxidants (sodium metabisulfite, propyl gallate, ascorbic acid) [1] | 5-HT2 agonist activity (5-HT2 receptors) |
| --- | --- | --- | --- |
| COc1ccc2[nH]cc(CC(C)N)c2c1 (stereo not drawn) [5-methoxy-α-methyltryptamine] | profile similar to that of α-methyl-serotonin | – | – |
| COc1cc(C[C@@H](C)N)c(OC)cc1I [(R)-DOI, (R)4-iodo-2,5 dimethoxy-α-methyl-benzeneethanamine] | not selective amongst the 5-HT2 receptor subtypes | – | – |
| CC(N)Cn1ncc2ccc(O)cc21 (centres unmarked) [AL-34662, 1-(2-aminopropyl)-indazol-6-ol] | – | did not stabilize | – |
| CC(N)Cc1c[nH]c2ccc(O)cc12 (stereo not drawn) [α-methyl-serotonin] | modest receptor subtype selectivity: 5-HT2B>5-HT2C>5-HT2A | – | potent 5-HT2 agonist |
